Drawing on ChEMBL document CHEMBL1817638, “Ligand polarizability contributes to tau fibril binding affinity” (Bioorg Med Chem, 2011), this text covers Activity for 15 molecules.

Assay [1] is described as follows: Displacement of Thioflavin T from synthetic Tau 2N4R aggregate by fluorescence assay at 1 uM probe concentration.
The nature of assay [2]: Displacement of Thioflavin S from synthetic Tau 2N4R aggregate by fluorescence assay at 10 uM probe concentration.
Assay [3] has as its target Microtubule-associated protein tau (Homo sapiens) (UniProt P10636). In words: Displacement of Thioflavin T from Octadecyl sulfate-induced synthetic Tau 0N4R aggregate at 17 pm to 10 uM by fluorescence assay at 0.1 uM probe concentration.
The target is the same in assay [4]. In words: Displacement of Thioflavin T from Octadecyl sulfate-induced synthetic Tau 0N4R aggregate at 17 pm to 10 uM by fluorescence assay at increasing probe concentration.
A short description of assay [5]: Displacement of Thioflavin S from Octadecyl sulfate-induced synthetic Tau 2N4R aggregate by fluorescence assay.
A short description of assay [6]: Displacement of Thioflavin S from arachidonic acid-induced synthetic Tau 2N4R aggregate by fluorescence assay.
The nature of assay [7]: Displacement of Thioflavin S from heparin-induced synthetic Tau 2N4R aggregate by fluorescence assay.
The target in assay [8] is Microtubule-associated protein tau (Homo sapiens) (UniProt P10636). In words: Displacement of Thioflavin S from recombinant human PHF-tau expressed in Escherichia coli by fluorescence assay.
Assay [9] is described as follows: Displacement of Thioflavin S from synthetic Tau 2N4R aggregate by fluorescence assay.

Calls of active or inactive are those of the source. The rule behind the calls is not given here.

Microtubule-associated protein tau (Homo sapiens), sequence (P10636 whole entry): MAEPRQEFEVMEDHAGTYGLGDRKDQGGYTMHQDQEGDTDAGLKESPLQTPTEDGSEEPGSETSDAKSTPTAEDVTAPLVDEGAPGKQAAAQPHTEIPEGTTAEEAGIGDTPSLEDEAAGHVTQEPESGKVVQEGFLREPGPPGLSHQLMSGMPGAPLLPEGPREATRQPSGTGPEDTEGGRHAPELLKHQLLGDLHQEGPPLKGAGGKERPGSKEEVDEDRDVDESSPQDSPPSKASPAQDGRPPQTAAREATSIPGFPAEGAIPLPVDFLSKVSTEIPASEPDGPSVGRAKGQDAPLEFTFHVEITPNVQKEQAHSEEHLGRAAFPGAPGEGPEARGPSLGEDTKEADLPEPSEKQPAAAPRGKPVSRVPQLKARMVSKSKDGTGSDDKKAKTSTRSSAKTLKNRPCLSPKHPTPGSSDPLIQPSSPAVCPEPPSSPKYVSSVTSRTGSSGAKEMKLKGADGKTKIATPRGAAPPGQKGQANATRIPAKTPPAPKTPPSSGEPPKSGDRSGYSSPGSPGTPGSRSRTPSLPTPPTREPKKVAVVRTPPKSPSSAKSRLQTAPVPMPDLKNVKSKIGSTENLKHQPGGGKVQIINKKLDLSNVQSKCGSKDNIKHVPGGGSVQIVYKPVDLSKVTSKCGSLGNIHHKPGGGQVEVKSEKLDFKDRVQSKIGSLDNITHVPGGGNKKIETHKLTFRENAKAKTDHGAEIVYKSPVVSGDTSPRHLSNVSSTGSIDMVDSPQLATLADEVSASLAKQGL

Regarding `CNc1ccc2nc3ccc(N(C)C)cc3[s+]c2c1`, the outcome in assay [1] was Active. The result in assay [2] was inactive.

For the molecule `O=C1C=CC(=C(c2ccc(O)cc2)c2ccc(O)cc2)C=C1`, the outcome in [1] and in assay [2] was Active.

Consider `CN(C)c1ccc(/C=C2/C(=O)Nc3ccccc32)cc1`, for which the outcome in assay [3] and in assay [4] was Active.

Turning to `CN(C)c1ccc2nc3ccc(=[N+](C)C)cc-3sc2c1`, the result in assay [5], in assay [6], in assay [7] and in assay [1] was Active. In assay [2], the outcome was inactive.

In the case of `C/N=c1\ccc2nc3ccc(N)cc3sc-2c1`, the result in assay [5], in [6], in assay [7] and in assay [1] was Active. The result in assay [2] was inactive.

For `O=C(O)c1cc(/N=N/c2ccc(-c3ccc(/N=N/c4ccc(O)c(C(=O)O)c4)cc3)cc2)ccc1O`, the result in [5], in assay [6] and in assay [7] was Active.

Turning to `CN(C)c1ccc(C(=C2C=CC(=[N+](C)C)C=C2)c2ccccc2)cc1`, the outcome in [1] and in [2] was Active.

On to `CN(C)c1ccc(/C=C2\C(=O)Nc3ccc(I)cc32)cc1`, for which the result in assay [8], in assay [9], in assay [5], in [6] and in assay [7] was Active.

Take `COc1ccc2nc(/N=N/c3ccc(N(C)C)cc3)sc2c1`: the result in assay [5], in assay [6] and in assay [7] was Active.

For the molecule `CN(C)c1ccc(C(=C2C=CC(=[N+](C)C)C=C2)c2ccc(N(C)C)cc2)cc1`, the result in assay [1] and in assay [2] was Active.

With `CN(C)c1ccc2nc3ccc(N)cc3[s+]c2c1`, the outcome in [1] was Active. In addition, the result in assay [2] was inactive.

Consider `Nc1ccc2nc3ccc(N)cc3[s+]c2c1`, for which, in assay [1], the outcome was Active. Also, in assay [2], the outcome was inactive.

For `N=C1C=CC(=C(c2ccc(N)cc2)c2ccc(N)cc2)C=C1`, the outcome in [1] and in [2] was Active.

As to `CN(C)c1ccc(-c2nc3ccccc3s2)cc1`, the outcome in assay [3] was Active. Moreover, the outcome in assay [4] was inactive.

Consider `Cc1cc2nc3ccc(N(C)C)cc3[s+]c2cc1N`, for which, in assay [1], the outcome was Active. Further, the outcome in [2] was inactive.
